Experimental data taken from patent publication US20180284095A1, “BIOMARKERS ASSOCIATED WITH LSD1 INHIBITORS AND USES THEREOF” (Oryzon Genomics, S.A., priority 2015, published 2018).

Tests used:
S100A8 = assay: Microarray gene expression in brain, spleen and liver of Hsd:Athymic Nude-Foxn1nu mice (Example 7); type: in vivo, mouse
Procedure: (§1) Total RNA was extracted from samples using the RNeasy extraction kit (Qiagen). The quality and concentration of the RNA was analyzed using the Agilent 2100 bioanalyzer and NanoDrop™ ND-1000 (Thermo Scientific). Samples with RNA integrity number (RIN)<6.0 were discarded. Total RNA (0.5 μg) amplification and labelling with Cy3 or Cy5 was carried out using the Eberwein mRNA amplification procedure (Van Gelder et al, Proc Natl Acad Sci USA 1990, 87:1663-1667) employing the MessageAmp™ aRNA amplification kit from Ambion (Applied Biosystems) following the manufacturer's instructions with minor modifications. As hybridization controls, plant mRNAs were transcribed from a plasmid containing the Zea mays Xet (xyloglucan endo-transglycosylase) cDNA and from a plasmid containing the Zea mays Zmmyb42 cDNA, independently prepared Cy3 and Cy5 labelled aRNA from these two RNAs using the Eberwein mRNA amplification procedure (as disclosed in Cerdà et al, Gen Comp Endocrinol 2008, 156:470-481).
(§2) The Cy3- and Cy5-labelled cRNAs and spikes were combined and hybridized to the microarray described in Example 2.6 for 17 h at 60° C. using Agilent's gaskets G2534-60002, G2534A hybridization chambers and DNA Hybridization Oven G2545A, according to the manufacturer's instructions. More specifically, equal amounts of Cy3 and Cy5 labeled Xet aRNA as well as equal amounts of Cy3 and Cy5 labeled Zmmyb42 aRNA were spiked into each mixture hybridized to the array. Arrays were washed and raw data were obtained using Agilent's DNA Microarray Scanner G2505B and Feature Extraction software (v10.1). The raw fluorescence intensity data were processed using applicant's proprietary software, and consists in the following operations:
(§3) Data normalization was carried out by an improved version of the nonlinear Q-splines normalization method (Workman et al., Genome Biol 2002, 3(9):research0048.1-0048.16). Normalization results were presented graphically as MA plots, as first described by Dudoit et al (Dudoit et al, Statistica Sinica, 2002, 12:111-139). Each point corresponds to a probe of the DNA array. M values (vertical axis) are the log-differential expression ratios. A values (horizontal axis) are the log-intensities of the spots. M and A are calculated from the Cy5 and Cy3 intensity values as of each spot. The DNA Array data is normalized using an improved version of non-linear Q-Splines normalization described by Workman et al., Genome Biol 2002, 3(9):research0048.1-0048.16. This process is useful to correct the deviation of the M values from the statistical assumption that most of the spots have M=0 in MA plots. The method allows the adjustment of all M values to form a cloud centered at M=0 in all intensity ranges. The data used to calculate the normalization fitting curve is the totality of the raw measurement dataset, excluding the signals for the probes for the spiked-in plant RNA controls and negative controls. In order to be able to normalize properly the data among all the experiments, the probe-set must include an important group of genes that should have no change (M=0) in the experiment. The normalization function is then applied to all the data, including controls.
(§4) Normalized and log-transformed data were used to calculate log 2 (sample/control) and Fold Change (FC) values. No background subtraction was applied to the signal intensity values during data processing, permitting robust selection of differentially expressed genes with low expression levels at the cost of potential sub-estimation of change when intensity levels are close to the array background level.
(§5) Powered Compound 3, 4 or 5 was dissolved in a 20% solution of 2-hydroxypropyl-R-cyclodextrin in water at the appropriate concentrations, vortexed and placed in an ultrasonic bath for 5 minutes.
(§6) Hsd:Athymic Nude-Foxn1nu mice were maintained in air- and temperature-controlled cages with regular supply of water and food. A maximum of 6 mice/cage were raised. […]

S100A9 = assay: as above; type: in vivo, mouse
Procedure: as §1, §2, §3, §4, §5, §6

For `N[C@H]1CCN(CCN[C@H]2C[C@@H]2c2ccc(-c3cccc(C(F)(F)F)c3)cc2)C1` (racemic) [Compound 5, (S)-1-(2-(((trans)-2-(3′-(trifluoromethyl)-[1,1′-biphenyl]-4-yl)cyclopropyl)amino)ethyl)pyrrolidin-3-amine], the “Hybridization signal sample_Cy5” value (S100A8; BRAIN, S100A8, 3.3 mg/kg) was 268.162, the “log2 (sample/control)” value (S100A8; BRAIN, S100A8, 3.3 mg/kg vs VEH) was −0.6462 and the “Hybridization signal sample_Cy5” value (S100A8; BRAIN, S100A8, 11 mg/kg) was 38.4889. For the same molecule, the “log2 (sample/control)” value (S100A8; BRAIN, S100A8, 11 mg/kg vs VEH) was −3.263, the “Hybridization signal sample_Cy5” value (S100A8; BRAIN, S100A8, 33 mg/kg) was 36.6941 and the “log2 (sample/control)” value (S100A8; BRAIN, S100A8, 33 mg/kg vs VEH) was −3.57. The “Hybridization signal sample_Cy5” value (S100A8; LIVER, S100A8, 3.3 mg/kg) was 315.439, the “log2 (sample/control)” value (S100A8; LIVER, S100A8, 3.3 mg/kg vs VEH) was −0.4761 and the “Hybridization signal sample_Cy5” value (S100A8; LIVER, S100A8, 11 mg/kg) was 73.2915. The “log2 (sample/control)” value (S100A8; LIVER, S100A8, 11 mg/kg vs VEH) was −2.357, the “Hybridization signal sample_Cy5” value (S100A8; LIVER, S100A8, 33 mg/kg) was 57.5133 and the “log2 (sample/control)” value (S100A8; LIVER, S100A8, 33 mg/kg vs VEH) was −2.909. The “Hybridization signal sample_Cy5” value (S100A8; SPLEEN, S100A8, 3.3 mg/kg) was 4802.3, the “log2 (sample/control)” value (S100A8; SPLEEN, S100A8, 3.3 mg/kg vs VEH) was −1.65 and the “Hybridization signal sample_Cy5” value (S100A8; SPLEEN, S100A8, 11 mg/kg) was 382.984. The “log2 (sample/control)” value (S100A8; SPLEEN, S100A8, 11 mg/kg vs VEH) was −5.38, the “Hybridization signal sample_Cy5” value (S100A8; SPLEEN, S100A8, 33 mg/kg) was 408.877 and the “log2 (sample/control)” value (S100A8; SPLEEN, S100A8, 33 mg/kg vs VEH) was −5.243. The “Hybridization signal sample_Cy5” value (S100A9; BRAIN, S100A9, 3.3 mg/kg) was 746.537, the “log2 (sample/control)” value (S100A9; BRAIN, S100A9, 3.3 mg/kg vs VEH) was −0.9635 and the “Hybridization signal sample_Cy5” value (S100A9; BRAIN, S100A9, 11 mg/kg) was 60.5479. The “log2 (sample/control)” value (S100A9; BRAIN, S100A9, 11 mg/kg vs VEH) was −4.54, the “Hybridization signal sample_Cy5” value (S100A9; BRAIN, S100A9, 33 mg/kg) was 58.3941 and the “log2 (sample/control)” value (S100A9; BRAIN, S100A9, 33 mg/kg vs VEH) was −4.697. The “Hybridization signal sample_Cy5” value (S100A9; LIVER, S100A9, 3.3 mg/kg) was 987.357, the “log2 (sample/control)” value (S100A9; LIVER, S100A9, 3.3 mg/kg vs VEH) was −0.5728 and the “Hybridization signal sample_Cy5” value (S100A9; LIVER, S100A9, 11 mg/kg) was 170.929. The “log2 (sample/control)” value (S100A9; LIVER, S100A9, 11 mg/kg vs VEH) was −3.056, the “Hybridization signal sample_Cy5” value (S100A9; LIVER, S100A9, 33 mg/kg) was 113.971 and the “log2 (sample/control)” value (S100A9; LIVER, S100A9, 33 mg/kg vs VEH) was −3.811. The “Hybridization signal sample_Cy5” value (S100A9; SPLEEN, S100A9, 3.3 mg/kg) was 13461.8, the “log2 (sample/control)” value (S100A9; SPLEEN, S100A9, 3.3 mg/kg vs VEH) was −1.719 and the “Hybridization signal sample_Cy5” value (S100A9; SPLEEN, S100A9, 11 mg/kg) was 963.073. For the same molecule, the “log2 (sample/control)” value (S100A9; SPLEEN, S100A9, 11 mg/kg vs VEH) was −5.625, the “Hybridization signal sample_Cy5” value (S100A9; SPLEEN, S100A9, 33 mg/kg) was 944.034 and the “log2 (sample/control)” value (S100A9; SPLEEN, S100A9, 33 mg/kg vs VEH) was −5.685.
